From patent US9409884B2 (Rigel Pharmaceuticals, Inc., priority 2012, dated 2016)

molecular target: AMPK; assay: AMPK activation, enzyme-linked immunosorbent assay; type: biochemical; conditions: Table 14, compounds of Table 7
Outline: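 AMPK activation by test compounds was measured by enzyme-linked immunosorbent assay.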

EC50 [nM] | SMILES
< 1000 | O=C(NC1CCN(Cc2ccc(OC(F)(F)F)cc2)C[C@H]1F)c1ccc(C(=O)N2CCC(C(=O)c3ccc(N4CCCC4)cc3)CC2)nc1 (stereo partly drawn) [Compound 7-57, N-((3,4-trans)-3-fluoro-1-(4-(trifluoromethoxy)benzyl)piperidin-4-yl)-6-(4-(4-(pyrrolidin-1-yl)benzoyl)piperidine-1-carbonyl) nicotinamide]
< 1000 | COc1ccc(C(=O)C2CCN(C(=O)c3ccc(C(=O)NC4CCN(Cc5ccc(C)c(C#N)c5)C[C@H]4F)cn3)CC2)cc1 (stereo partly drawn) [Compound 7-58, N-((3,4-trans)-1-(3-cyano-4-methylbenzyl)-3-fluoropiperidin-4-yl)-6-(4-(4-methoxybenzoyl)piperidine-1-carbonyl)nicotinamide]
< 1000 | COc1ccc(C(=O)C2CCN(C(=O)c3ccc(C(=O)NC4CCN(Cc5ccc(C#N)c(C)c5)C[C@H]4F)cn3)CC2)cc1 (stereo partly drawn) [Compound 7-59, N-((3,4-trans)-1-(4-cyano-3-methylbenzyl)-3-fluoropiperidin-4-yl)-6-(4-(4-methoxybenzoyl)piperidine-1-carbonyl)nicotinamide]
1000 to 10000 | CS(=O)(=O)c1ccc(C(=O)C2CCN(C(=O)c3ccc(C(=O)NC4CCN(Cc5ccc(OC(F)(F)F)cc5)C[C@H]4F)cn3)CC2)cc1 (stereo partly drawn) [Compound 7-61, N-((3,4-trans)-3-fluoro-1-(4-(trifluoromethoxy)benzyl)piperidin-4-yl)-6-(4-(4-(methylsulfonyl)benzoyl)piperidine-1-carbonyl) nicotinamide]
< 1000 | N#Cc1ccc(OC2CCN(C(=O)c3ccc(C(=O)NC4CCN(Cc5ccc(OC(F)(F)F)cc5)CC4F)cn3)CC2)cc1 (stereo not drawn) [Compound 7-62, 6-(4-(4-cyanophenoxy)piperidine-1-carbonyl)-N-((3,4-trans)-3-fluoro-1-(4-(trifluoromethoxy)benzyl)piperidin-4-yl)nicotinamide]
10000 to 20000 | COc1ccc(C(=O)C2CCN(C(=O)c3ccc(C(=O)NC4CCN(Cc5cnn(C)c5)C[C@H]4F)cn3)CC2)cc1 (stereo partly drawn) [Compound 7-63, N-((3,4-trans)-3-fluoro-1-((1-methyl-1H-pyrazol-4-yl)methyl)piperidin-4-yl)-6-(4-(4-methoxybenzoyl)piperidine-1-carbonyl)nicotinamide]
1000 to 10000 | Cc1cc(OC2CCN(C(=O)c3ccc(C(=O)NC4CCN(Cc5ccc(OC(F)(F)C(F)F)cc5)CC4)cn3)CC2)ccc1S(C)(=O)=O [Compound 7-64, 6-(4-(3-methyl-4-(methylsulfonyl)phenoxy)piperidine-1-carbonyl)-N-(1-(4-(1,1,2,2-tetrafluoroethoxy)benzyl)piperidin-4-yl)nicotinamide]
< 1000 | N#Cc1ccc(CN2CCC(NC(=O)c3ccc(C(=O)N4CCC(Oc5ccc(C#N)cc5)CC4)nc3)[C@@H](F)C2)cc1 (stereo partly drawn) [Compound 7-67, N-((3,4-trans)-l-(4-cyanobenzyl)-3-fluoropiperidin-4-yl)-6-(4-(4-cyanophenoxy)piperidine-1-carbonyl)nicotinamide]
< 1000 | N#Cc1ccc(CN2CCC(NC(=O)c3ccc(C(=O)N4CCC(C(=O)c5ccc(-n6cccn6)cc5)CC4)nc3)[C@H](F)C2)cc1 (stereo partly drawn) [Compound 7-68, 6-(4-(4-(lH-pyrazol-1-yl)benzoyl)piperidine-1-carbonyl)-N-((3,4-trans)-1-(4-cyanobenzyl)-3-fluoropiperidin-4-yl)nicotinamide]
< 1000 | CC(=O)c1ccc(Oc2ccc(NC(=O)c3ccc(C(=O)N4CCC(C(=O)c5ccc(OC(F)(F)F)cc5)CC4)nc3)cn2)cc1 [Compound 7-70, N-(6-(4-acetylphenoxy)pyridin-3-yl)-6-(4-(4-(trifluoromethoxy)benzoyl)piperidine-1-carbonyl) nicotinamide]
< 1000 | N#Cc1ccc(CN2CCC(NC(=O)c3ccc(C(=O)N4CCC(C(=O)c5ccc(OC(F)(F)F)cc5)CC4)nc3)[C@H](F)C2)cc1 (stereo partly drawn) [Compound 7-71, N-((3,4-trans)-1-(4-cyanobenzyl)-3-fluoropiperidin-4-yl)-6-(4-(4-(trifluoromethoxy)benzoyl)piperidine-1-carbonyl) nicotinamide]
< 1000 | N#Cc1ccc(CN2CCC(NC(=O)c3ccc(C(=O)N4CCC(C(=O)c5ccc(N6CCCC6)cc5)CC4)nc3)[C@H](F)C2)cc1 (stereo partly drawn) [Compound 7-72, N-((3,4-trans)-1-(4-cyanobenzyl)-3-fluoropiperidin-4-yl)-6-(4-(4-(pyrrolidin-1-yl)benzoyl)piperidine-1-carbonyl)nicotinamide]
1000 to 10000 | N#Cc1ccc(CN2CCC(NC(=O)c3ccc(C(=O)N4CCC(Oc5ccc(S(=O)(=O)C6CC6)cc5)CC4)nc3)[C@H](F)C2)cc1 (stereo partly drawn) [Compound 7-73, N-((3,4-trans)-1-(4-cyanobenzyl)-3-fluoropiperidin-4-yl)-6-(4-(4-(cyclopropylsulfonyl)phenoxy)piperidine-1-carbonyl)nicotinamide]
< 1000 | CC(=O)c1ccc(OC2CCN(C(=O)c3ccc(C(=O)NC4CCN(Cc5ccc(C#N)cc5)C[C@H]4F)cn3)CC2)cc1 (stereo partly drawn) [Compound 7-74, 6-(4-(4-acetylphenoxy)piperidine-1-carbonyl)-N-((3,4-trans)-1-(4-cyanobenzyl)-3-fluoropiperidin-4-yl)nicotinamide]
< 1000 | N#Cc1ccc(CN2CCC(NC(=O)c3ccc(C(=O)N4CCC(C(=O)c5ccc(N6CCOCC6)cc5)CC4)nc3)[C@H](F)C2)cc1 (stereo partly drawn) [Compound 7-75, N-((3,4-trans)-1-(4-cyanobenzyl)-3-fluoropiperidin-4-yl)-6-(4-(4-morpholinobenzoyl)piperidine-l-carbonyl)nicotinamide]
1000 to 10000 | CC(=O)c1ccc(Oc2ccc(NC(=O)c3ccc(C(=O)N4CCN(Cc5ccc(S(C)(=O)=O)cc5)CC4)nc3)cn2)cc1 [Compound 7-76, N-(6-(4-acetylphenoxy)pyridin-3-yl)-6-(4-(4-(methylsulfonyl)benzyl)piperazine-1-carbonyl) nicotinamide]
< 1000 | CS(=O)(=O)c1ccc(N2CCN(c3ccc(C(=O)NC4CCN(Cc5ccc(C#N)cc5)CC4)cn3)CC2)cc1 [Compound 7-77, N-(1-(4-cyanobenzyl)piperidin-4-yl)-6-(4-(4-(methylsulfonyl)phenyl)piperazin-1-yl)nicotinamide]
< 1000 | COc1ccc(C(=O)C2CCN(C(=O)c3ccc(C(=O)NC4CCN(Cc5ccc(C#N)cc5)C[C@@H]4C)cn3)CC2)cc1 (stereo partly drawn) [Compound 7-78, N-((3,4-trans)-1-(4-cyanobenzyl)-3-methylpiperidin-4-yl)-6-(4-(4-methoxybenzoyl)piperidine-1-carbonyl)nicotinamide]
10000 to 20000 | CS(=O)(=O)c1ccc(CN2CCN(c3ccc(C(=O)NC4CCN(Cc5ccc(C#N)cc5)CC4)cn3)CC2)cc1 [Compound 7-79, N-(1-(4-cyanobenzyl)piperidin-4-yl)-6-(4-(4-(methylsulfonyl)benzyl)piperazin-1-yl)nicotinamide]
< 1000 | CS(=O)(=O)c1ccc(OC2CCN(c3ccc(C(=O)NC4CCN(Cc5ccc(C#N)cc5)CC4)cn3)CC2)cc1 [Compound 7-80, N-(1-(4-cyanobenzyl)piperidin-4-yl)-6-(4-(4-(methylsulfonyl)phenoxy)piperidin-1-yl)nicotinamide]
< 1000 | N#Cc1ccc(CN2CCC(NC(=O)c3ccc(N4CCN(c5ccc(C(=O)C6CC6)cc5)CC4)nc3)CC2)cc1 [Compound 7-81, N-(1-(4-cyanobenzyl)piperidin-4-yl)-6-(4-(4-(cyclopropanecarbonyl)phenyl)piperazin-1-yl)nicotinamide]
1000 to 10000 | CC(=O)c1ccc(Oc2ccc(NC(=O)c3ccc(C(=O)N4CCN(Cc5ccc(S(=O)(=O)N6CCCC6)cc5)CC4)nc3)cn2)cc1 [Compound 7-83, N-(6-(4-acetylphenoxy)pyridin-3-yl)-6-(4-(4-(pyrrolidin-1-ylsulfonyl)benzyl)piperazine-1-carbonyl)nicotinamide]
< 1000 | COc1ccc(C(=O)C2CCN(C(=O)c3ccc(C(=O)NC4CCN(Cc5ccc(C#N)cc5)CC4(C)C)cn3)CC2)cc1 (centres unmarked) [Compound 7-84, N-(1-(4-cyanobenzyl)-3,3-dimethylpiperidin-4-yl)-6-(4-(4-methoxybenzoyl)piperidine-1-carbonyl)nicotinamide]
< 1000 | COc1ccc(C(=O)C2CCN(C(=O)c3ccc(C(=O)NC4CCN(Cc5ccc(OC(F)(F)F)cc5)CC4(C)C)cn3)CC2)cc1 (centres unmarked) [Compound 7-85, N-(3,3-dimethyl-1-(4-(trifluoromethoxy)benzyl)piperidin-4-yl)-6-(4-(4-methoxybenzoyl)piperidine-1-carbonyl)nicotinamide]
< 1000 | COc1ccc(C(=O)C2CCN(C(=O)c3ccc(C(=O)NC4CCN(Cc5ccc(C#N)c(F)c5)CC4(C)C)cn3)CC2)cc1 (centres unmarked) [Compound 7-86, N-(1-(4-cyano-3-fluorobenzyl)-3,3-dimethylpiperidin-4-yl)-6-(4-(4-methoxybenzoyl)piperidine-1-carbonyl)nicotinamide]
1000 to 10000 | COc1ccc(C(=O)C2CCN(C(=O)c3ccc(C(=O)NC4CCN(Cc5ccc(F)c(OC)c5)CC4(C)C)cn3)CC2)cc1 (centres unmarked) [Compound 7-87, N-(1-(4-fluoro-3-methoxybenzyl)-3,3-dimethylpiperidin-4-yl)-6-(4-(4-methoxybenzoyl)piperidine-1-carbonyl)nicotinamide]
1000 to 10000 | COc1ccc(C(=O)C2CCN(C(=O)c3ccc(C(=O)NC4CCN(Cc5ccc(C#N)c(OC)c5)CC4(C)C)cn3)CC2)cc1 (centres unmarked) [Compound 7-89, N-(1-(4-cyano-3-methoxybenzyl)-3,3-dimethylpiperidin-4-yl)-6-(4-(4-methoxybenzoyl)piperidine-1-carbonyl)nicotinamide]
1000 to 10000 | COc1ccc(C(=O)C2CCN(C(=O)c3ccc(C(=O)NC4CCN(Cc5ccc(OC)c(C#N)c5)CC4(C)C)cn3)CC2)cc1 (centres unmarked) [Compound 7-90, N-(1-(3-cyano-4-methoxybenzyl)-3,3-dimethylpiperidin-4-yl)-6-(4-(4-methoxybenzoyl)piperidine-1-carbonyl)nicotinamide]
10000 to 20000 | CCNS(=O)(=O)c1ccc(CN2CCN(C(=O)c3ccc(C(=O)N4CCC(C(=O)c5ccc(OC)cc5)CC4)nc3)CC2)cc1 [Compound 7-91, N-ethyl-4-((4-(6-(4-(4-methoxybenzoyl)piperidine-1-carbonyl)nicotinoyl)piperazin-1-yl)methyl)benzenesulfonamide]
